Tested on: corneal kindling
Experiment: Mouse corneal kindling acquisition
Type: in vivo, CF#1 mice
Details: 4 mg/kg i.p. twice daily
Experimental: CF#1 mice were randomized to receive either vehicle (0.9% saline) or NAX-5055. Mice in the NAX-5055 group received two doses of NAX-5055 twelve (12 h) and 1 h prior to their first kindling stimulation. One hour (1 h) prior to each subsequent stimulation, mice in the NAX-5055 treated group received another dose of NAX-5055 (4 mg/kg, i.p.). Mice were stimulated twice daily for 16 days. Results are expressed as the mean seizure score per stimulation. As noted above, the results for the NAX-5055 treated mice segregated into two populations; i.e., sensitive (green line) and insensitive (blue line).
Daily electrical stimulation via the cornea results in a stable kindled state within 15-20 days. This is an ideal model to initially assess the ability of selected galanin analogs to prevent kindling acquisition because the amount of peptide required is much lower than what is required for a rat kindling study. Those compounds found to be effective in preventing the acquisition of kindling are subsequently evaluated in a more traditional rat kindling model; i.e., amygdala kindled rat. For the proposed studies two groups of mice (n=8 mice per group) are randomized to receive either vehicle or peptide prior to each kindling stimulation. […] At the time to peak effect (obtained from the 6 Hz study), they are stimulated via corneal electrodes with a subconvulsive current (50 Hz, 3 mA, for 3.0 sec) and observed for the presence or absence of seizure activity. Seizure activity is scored according to the criteria established by Racine et al., (1972). Animals receive two stimulations per day until they display their first Stage 5 behavioral seizure and then once daily until they display stable secondarily generalized seizures (5 consecutive Stage 4-5 seizures). Peptide treatment continues in the experimental group until the point that the control mice become fully kindled. At this point, mice in both groups are permitted a one-week stimulus and treatment-free week. On the 8th day, mice in both groups are stimulated in the absence of peptide or vehicle and their seizure score recorded.
The ability of the blood-brain-barrier penetrant galanin-based neuropeptide NAX-5055 to prevent the development of corneal kindling was studied in CF#1 mice. The mouse corneal kindling model is a non-intrusive animal model of partial epilepsy wherein mice receive an initially subconvulsive current (3 mA) for 3 seconds via corneal electrodes twice daily for several days. Vehicle treated mice usually require between 12-16 days to reach a stable Stage 5 seizure; i.e., a secondary generalized focal seizure. In the present study, 16 mice were randomized to one of two experimental groups; saline or NAX-5055. […] Following stimulation seizure activity was scored on a scale of 0-5 as established by Racine (1972).

## Sar-Trp-Thr-Leu-Asn-Ser-Ala-Gly-Tyr-Leu-Leu-Gly-Pro-Lys-Lys-(Lys-palm)-Lys-NH2 [NAX 5055]
  kindling acquisition: can delay kindling acquisition
  more stimulations to reach Stage 2 and Stage 3 seizures, NAX-5055 sensitive group: 35-40%
  stimulations required to reach a Stage 1 seizure, NAX-5055 sensitive group: two times more stimulations
Sensitive n=3 of 8
  mice of NAX-5055 sensitive group that reached Stage 5 seizures: none

Source: patent publication US20180340012A1, “METHODS AND CO[…] TO IMPROVING PROPERTIES OF PHARMACOLOGICAL AGENTS TARGETING NERVOUS SYSTEM” (University of Utah Research Foundation, priority 2006, published 2018)
